# Measured values as given in patent US9151761B2, “Predictive biomarker of survival in the treatment of renal cell carcinoma” (Amgen Inc., priority 2011, dated 2015).
# System: advanced clear cell carcinoma of the kidney
# Assay: Phase 2 study of AMG 386 plus sorafenib: progression free survival by baseline serum PLGF above vs below the median (28 pg/mL)
# Format: in vivo, human
# Details: sorafenib only, 400 mg PO BID (placebo AMG 386), FIG. 4
# Procedure: FIGS. 1-4 are Kaplan-Meier plots showing progression free survival differences between subjects with patient PLGF concentrations above and below the median PLGF concentration parameter (28 pg/mL). 123 patients total with 43 patients administered AMG 386 at 10 mg/kg, 39 patients at 3 mg/kg, and 41 patients at 0 mg/kg. All patients were also dosed with 400 mg sorafenib orally, twice a day. […]
# The number of patients to be enrolled was approximately 150. […] The primary outcome measured was PFS while the secondary outcome included objective response rate, duration of response, and change in continuous measures of tumor burden.
# Renal cancer patient's circulating levels of protein placental growth factor (PLGF) was analyzed along with a number of other analytes to determine if it was predictive of how well they will respond after treatment with AMG 386 and sorafenib. […] The baseline patient PLGF concentration was analyzed to determine if it was informative of how well the patient would respond to the treatment regimens.
# The patients PLGF concentrations were determined and tested for statistical association with progression free survival (PFS) time. […] Predictive significance was determined with a Cox proportional hazards model of PFS with the factors PLGF, cohort, and the interaction between PLGF and cohort. […]
compound,measurement,setting,value
CNC(=O)c1cc(Oc2ccc(NC(=O)Nc3ccc(Cl)c(C(F)(F)F)c3)cc2)ccn1 [sorafenib],"Cox proportional hazard ratio (HR) of progression free survival, patient PLGF above vs below median","41 patients (23 above, 18 below)",0.83
same,"difference in median survival, patient PLGF above vs below median",41 patients,1 days
